The target of assay [1] is T1, D(3) dopamine receptor (Homo sapiens, UniProt P35462). The experiment in a line: Partial agonist activity at dopamine D3 receptor (unknown origin) expressed in HEK293 cells at 10 pM to 100 uM after 2 mins by BRET-based Go activation assay relative to dopamine. The class given is cell-based. The settings on record: for Emax: 10 pM.
For a further assay, the target named is D(2) dopamine receptor (Homo sapiens, UniProt P14416). The experiment in a line: Displacement of [3H]-N-methylspiperone from human dopamine D2 receptor expressed in HEK293 cells after 1 hr by MicroBeta microplate counting method. It is filed as cell-based.
For a further assay, the species on record is Homo sapiens. In words: Selectivity ratio of Ki for human dopamine D2 receptor to Ki for human dopamine D3 receptor.
The target in assay [2] is T1, D(3) dopamine receptor. The experiment in a line: Displacement of [3H]-N-methylspiperone from human dopamine D3 receptor expressed in HEK293 cells after 1 hr by MicroBeta microplate counting method. The class given is cell-based.
For assay [3], the target named is T1, D(3) dopamine receptor. In words: Partial agonist activity at dopamine D3 receptor (unknown origin) expressed in HEK293 cells at 10 pM to 100 uM after 30 mins by beta-arrestin recruitment assay relative to dopamine. The class given is cell-based.

pKi: −log10 of the molar value. Calls of active or inactive are those of the source. The rule behind the calls is not given here.

11 molecules from ChEMBL document CHEMBL4052584, “Toward Understanding the Structural Basis of Partial Agonism at the Dopamine D3 Receptor” (J Med Chem, 2017) can be followed below.

D(2) dopamine receptor, sequence (P14416 whole entry): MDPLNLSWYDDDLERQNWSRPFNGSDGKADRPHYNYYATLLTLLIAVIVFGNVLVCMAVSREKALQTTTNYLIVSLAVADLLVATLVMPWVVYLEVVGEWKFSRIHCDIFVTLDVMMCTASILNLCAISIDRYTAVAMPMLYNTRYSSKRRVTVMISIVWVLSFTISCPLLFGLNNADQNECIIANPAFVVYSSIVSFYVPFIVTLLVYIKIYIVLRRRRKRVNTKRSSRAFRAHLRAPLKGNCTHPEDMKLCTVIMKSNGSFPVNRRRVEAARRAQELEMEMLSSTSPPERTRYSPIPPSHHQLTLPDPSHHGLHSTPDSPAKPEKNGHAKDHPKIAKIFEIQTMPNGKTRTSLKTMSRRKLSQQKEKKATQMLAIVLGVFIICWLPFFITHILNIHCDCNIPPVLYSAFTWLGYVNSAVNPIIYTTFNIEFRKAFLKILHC
T1 sequence (P35462 whole entry): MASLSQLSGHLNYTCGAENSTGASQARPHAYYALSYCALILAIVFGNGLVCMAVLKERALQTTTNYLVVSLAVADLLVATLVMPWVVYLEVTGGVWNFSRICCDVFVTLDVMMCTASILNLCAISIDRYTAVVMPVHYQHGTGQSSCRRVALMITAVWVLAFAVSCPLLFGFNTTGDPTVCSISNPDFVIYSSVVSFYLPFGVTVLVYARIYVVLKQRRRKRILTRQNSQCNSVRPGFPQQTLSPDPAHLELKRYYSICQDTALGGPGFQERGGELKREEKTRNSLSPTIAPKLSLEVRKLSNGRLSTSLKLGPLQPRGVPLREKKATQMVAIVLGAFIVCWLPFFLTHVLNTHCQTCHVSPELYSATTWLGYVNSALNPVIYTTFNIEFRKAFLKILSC

On D(3) dopamine receptor [1], `O=C(NCCCCN1CCN(c2cccc(Cl)c2Cl)CC1)c1cnc2ccccc2c1` yielded an Emax of 20.9%. Moreover, the pKi is 8.00 on D(2) dopamine receptor and 9.76 at D(3) dopamine receptor [2]. Besides, in the assay listed under Homo sapiens, the Ratio Ki is 58.

In the case of `CC[C@@H](O)CN1CCN(c2cccc(Cl)c2Cl)CC1`, at D(3) dopamine receptor [1], the Emax came out at 11.6%. Besides, the result on D(3) dopamine receptor [3] was inactive. For the same molecule, the pKi was 6.23 at D(2) dopamine receptor and 6.92 on D(3) dopamine receptor [2]. For the same molecule, the Ratio Ki in the assay filed under Homo sapiens turned out to be 5.

`O=C(NCC[C@H](O)CN1CCN(c2cccc(Cl)c2Cl)CC1)c1cnc2ccccc2c1` gave an Emax at D(3) dopamine receptor [1] of 53.9%. Also, on D(3) dopamine receptor [3], the result was Active. Besides, the pKi at D(2) dopamine receptor was 6.50; at D(3) dopamine receptor [2], 7.63. Besides, the Ratio Ki in the assay listed under Homo sapiens turned out to be 14.

As for `CC[C@H](O)CN1CCN(c2cccc(Cl)c2Cl)CC1`, the Emax on D(3) dopamine receptor [1] is 58.6%. Further, the outcome at D(3) dopamine receptor [3] was Active. Moreover, the values for the pKi at D(2) dopamine receptor and at D(3) dopamine receptor [2] were 7.03 and 7.46, respectively. Also, the Ratio Ki in the assay filed under Homo sapiens was 3.

`O=C(NCC[C@H](O)CN1CCN(c2cccc(Cl)c2Cl)CC1)c1cc2ccccc2[nH]1` yielded an Emax at D(3) dopamine receptor [1] of 55.7%. In addition, the result at D(3) dopamine receptor [3] was Active.

For the molecule `CCCCN1CCN(c2cccc(Cl)c2Cl)CC1`, the result at D(3) dopamine receptor [1] (10 pM to 100 uM) was inactive. Further, the Ratio Ki in the assay filed under Homo sapiens was determined as 2.

For `C[C@@H](O)CN1CCN(c2cccc(Cl)c2Cl)CC1`, the pKi is 5.85 on D(2) dopamine receptor and 6.43 on D(3) dopamine receptor [2]. Besides, in the assay listed under Homo sapiens, the Ratio Ki was found to be 4.

For `O=C(NCCC(O)CN1CCN(c2cccc(Cl)c2Cl)CC1)c1cnc2ccccc2c1` (racemic), the values for the pKi on D(2) dopamine receptor and on D(3) dopamine receptor [2] were 6.57 and 8.37, respectively. Moreover, the Ratio Ki in the assay filed under Homo sapiens was 63.

On to `O=C(NCC[C@@H](O)CN1CCN(c2cccc(Cl)c2Cl)CC1)c1cc2ccccc2[nH]1`, for which the Emax at D(3) dopamine receptor [1] worked out at 14.9%. Besides, the result at D(3) dopamine receptor [3] was inactive.

In the case of `O=C(NCC[C@@H](O)CN1CCN(c2cccc(Cl)c2Cl)CC1)c1cnc2ccccc2c1`, on D(3) dopamine receptor [1], the Emax amounted to 19.9%. Besides, the outcome on D(3) dopamine receptor [3] was inactive. Further, the results for the pKi at D(2) dopamine receptor and on D(3) dopamine receptor [2] were 6.69 and 8.39, respectively. Also, the Ratio Ki in the assay listed under Homo sapiens is 49.

In the case of `C[C@H](O)CN1CCN(c2cccc(Cl)c2Cl)CC1`, the negative logarithm of the Ki (pKi) is 6.50 on D(2) dopamine receptor and 7.12 at D(3) dopamine receptor [2]. The Ratio Ki in the assay listed under Homo sapiens amounted to 4.
